Results taken from patent publication US11548900B2, “Oxazino-quinazoline and oxazino-quinoline type compound, preparation method and uses thereof” (BEIJING SCITECH-MQ PHARMACEUTICALS LIMITED, priority 2018, dated 2023).

Target: HER2 kinase (Homo sapiens (Human), UniProt P04626)
Assay: Inhibition of HER2 kinase activity (ULight-labeled PolyGT substrate)
Format: biochemical
Conditions: HER2 kinase 10 nM, ATP 10 μM, 2 hours
Procedure: The assay for the inhibition of EGFR and HER2 kinase activity by small molecular compounds was carried out using the method as follows:
1) Dilution of the compounds
In a 96-well plate a, the compounds were diluted with DMSO using a 3-fold gradient dilution to form 11 concentrations, the 12th concentration is pure DMSO (as a positive control); and in a new 96-well plate b the above solutions were diluted 25 times with ultrapure water (DMSO concentration is 4%).
2) Transferring the compounds to 384-well plate
The compound solutions diluted with ultrapure water in the 96-well plate b above was transferred to the corresponding wells of a 384-well plate in duplicate.
3) Addition of 4×kinase solution: 2.5 μl of the above 4× kinase solution was taken using multichannel pipette and added to the corresponding reaction wells of the 384-well plate, mixed well and pre-reacted at room temperature for 5 minutes.
4) Addition of 2×substrate/ATP mixed solution: 5 μl of the above 2×substrate/ATP mixed solution was taken using multichannel pipette and added to the corresponding reaction wells of the 384-well plate.
5) Negative control: negative control wells were set in the 384-well plate, and 2.5 μl 4×substrate, 2.5 μl 4×enzyme solution, 2.5 μl 1×Kinase Assay Buffer and 2.5 μl ultrapure water containing 4% DMSO were added to each well.
6) Mixed by centrifugation and kept at room temperature for 2 hours in the dark.
7) Termination of the enzymatic reaction:
5 μl of the above 4× stop solution was pipetted to the corresponding wells of the 384-well plate, centrifuged and mixed, and reacted at room temperature for 5 minutes.
5 μl of the above 4× detection solution was pipetted into the corresponding wells of the 384-well plate, centrifuged and mixed, and reacted at room temperature for 1 hour.
9) The 384-well plate was placed into a microplate reader and the signal was detected using the corresponding program.
10) IC50 analysis: Well reading value=10000*EU665 value/EU615 value Inhibition rate=(reading value of positive control well−reading value of experimental well)/(reading value of positive control well−reading value of negative control well)*100% Corresponding IC50s can be calculated by entering the drug concentrations and the corresponding inhibition rates into GraphPad Prism 5.
Conditions of experiment for screening HER2 kinase inhibitory molecules:
The final concentration of HER2 kinase in the reaction system is 10 nM, the final concentration of ATP is 10 μM, the final concentration of substrate ULight™-labeled PolyGT is 100 nM, and the enzymatic reaction time is 2 hours.
The maximum final concentration of the compound in the reaction system is 2.5 μM, 11 concentrations were made with a 3-fold gradient dilution, and the minimal final concentration is 0.042 nM. The final concentration of DMSO is 1%.

Sequence of HER2 kinase (P04626 23-1255): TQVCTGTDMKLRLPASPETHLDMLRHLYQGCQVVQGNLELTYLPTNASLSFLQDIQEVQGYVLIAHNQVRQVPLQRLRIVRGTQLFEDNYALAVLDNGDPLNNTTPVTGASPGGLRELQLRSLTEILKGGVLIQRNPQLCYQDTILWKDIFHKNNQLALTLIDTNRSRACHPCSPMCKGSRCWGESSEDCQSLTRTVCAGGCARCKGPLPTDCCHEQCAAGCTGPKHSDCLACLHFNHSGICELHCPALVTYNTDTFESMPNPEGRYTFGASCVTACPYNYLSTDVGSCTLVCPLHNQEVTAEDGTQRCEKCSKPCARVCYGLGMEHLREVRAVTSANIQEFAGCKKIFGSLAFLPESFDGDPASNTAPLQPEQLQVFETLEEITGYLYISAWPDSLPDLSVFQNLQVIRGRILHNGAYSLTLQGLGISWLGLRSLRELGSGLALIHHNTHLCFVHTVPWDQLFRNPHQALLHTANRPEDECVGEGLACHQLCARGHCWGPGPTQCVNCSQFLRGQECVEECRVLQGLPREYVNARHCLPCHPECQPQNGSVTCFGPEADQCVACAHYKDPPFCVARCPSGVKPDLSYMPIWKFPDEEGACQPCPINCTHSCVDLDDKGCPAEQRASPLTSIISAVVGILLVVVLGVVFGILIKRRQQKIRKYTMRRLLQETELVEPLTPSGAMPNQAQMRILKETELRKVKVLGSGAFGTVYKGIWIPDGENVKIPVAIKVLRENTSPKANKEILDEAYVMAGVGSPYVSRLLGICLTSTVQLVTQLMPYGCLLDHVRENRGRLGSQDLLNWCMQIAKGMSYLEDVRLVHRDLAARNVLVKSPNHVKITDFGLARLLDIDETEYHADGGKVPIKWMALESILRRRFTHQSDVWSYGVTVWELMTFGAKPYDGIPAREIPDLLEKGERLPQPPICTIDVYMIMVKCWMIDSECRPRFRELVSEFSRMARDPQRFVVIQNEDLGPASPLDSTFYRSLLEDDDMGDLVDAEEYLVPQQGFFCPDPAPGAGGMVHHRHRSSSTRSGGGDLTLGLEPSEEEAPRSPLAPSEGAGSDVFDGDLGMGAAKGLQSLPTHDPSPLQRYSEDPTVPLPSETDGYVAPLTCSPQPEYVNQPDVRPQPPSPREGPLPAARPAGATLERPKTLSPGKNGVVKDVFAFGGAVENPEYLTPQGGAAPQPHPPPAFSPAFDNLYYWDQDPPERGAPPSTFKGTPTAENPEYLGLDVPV

IC50 [nM] | Compound
≤ 50 | C=CC(=O)N1CCOc2c1ccc1ncnc(Nc3ccc(Oc4cccc(C(F)(F)F)c4)cc3)c21 [Example 1, 1-(10-((4-(3-(trifluoromethyl)phenoxy)phenyl)amino)-2,3-dihydro-4H-[1,4]oxazino[2,3-f]quinazolin-4-yl)prop-2-en-1-one]
≤ 50 | C=CC(=O)N1CCOc2c1ccc1ncnc(Nc3ccc(Oc4cccc(C)c4)cc3)c21 [Example 5, 1-(10-((4-(m-tolyloxy)phenyl)amino)-2,3-dihydro-4H-[1,4]oxazino[2,3-f]quinazolin-4-yl)prop-2-en-1-one]
≤ 50 | C=CC(=O)N1CCOc2c1ccc1ncnc(Nc3ccc(Oc4cccc(Cl)c4)cc3)c21 [Example 6, 1-(10-((4-(3-chlorophenoxy)phenyl)amino)-2,3-dihydro-4H-[1,4]oxazino[2,3-f]quinazolin-4-yl)prop-2-en-1-one]
≤ 50 | C=CC(=O)N1CCOc2c1ccc1ncnc(Nc3ccc(Oc4cccc(F)c4)cc3)c21 [Example 7, 1-(10-((4-(3-fluorophenoxy)phenyl)amino)-2,3-dihydro-4H-[1,4]oxazino[2,3-f]quinazolin-4-yl)prop-2-en-1-one]
≤ 50 | C=CC(=O)N1CCOc2c1ccc1ncnc(Nc3ccc(Oc4ccccc4F)cc3)c21 [Example 8, 1-(10-((4-(2-fluorophenoxy)phenyl)amino)-2,3-dihydro-4H-[1,4]oxazino[2,3-f]quinazolin-4-yl)prop-2-en-1-one]
≤ 50 | C=CC(=O)N1CCOc2c1ccc1ncnc(Nc3ccc(Oc4ccc(F)cc4)cc3)c21 [Example 9, 1-(10-((4-(4-fluorophenoxy)phenyl)amino)-2,3-dihydro-4H-[1,4]oxazino[2,3-f]quinazolin-4-yl)prop-2-en-1-one]
≤ 50 | C=CC(=O)N1CCOc2c1ccc1ncnc(Nc3ccc(Oc4ccc(Cl)cc4)cc3)c21 [Example 10, 1-(10-((4-(4-chlorophenoxy)phenyl)amino)-2,3-dihydro-4H-[1,4]oxazino[2,3-f]quinazolin-4-yl)prop-2-en-1-one]
≤ 50 | C=CC(=O)N1CCOc2c1ccc1ncnc(Nc3ccc(Oc4ccccc4OC)cc3)c21 [Example 11, 1-(10-((4-(2-methoxyphenoxy)phenyl)amino)-2,3-dihydro-4H-[1,4]oxazino[2,3-f]quinazolin-4-yl)prop-2-en-1-one]
≤ 50 | C=CC(=O)N1CCOc2c1ccc1ncnc(Nc3ccc(Oc4ccccn4)cc3)c21 [Example 12, 1-(10-((4-(pyridin-2-yloxy)phenyl)amino)-2,3-dihydro-4H-[1,4]oxazino[2,3-f]quinazolin-4-yl)prop-2-en-1-one]
≤ 50 | C=CC(=O)N1CCOc2c1ccc1ncnc(Nc3ccc(Oc4cccnc4)cc3)c21 [Example 13, 1-(10-((4-(pyridin-3-yloxy)phenyl)amino)-2,3-dihydro-4H-[1,4]oxazino[2,3-f]quinazolin-4-yl)prop-2-en-1-one]
≤ 50 | C=CC(=O)N1CCOc2c1ccc1ncnc(Nc3ccc(Oc4cccc(OC)c4)cc3)c21 [Example 14, 1-(10-((4-(3-methoxyphenoxy)phenyl)amino)-2,3-dihydro-4H-[1,4]oxazino[2,3-f]quinazolin-4-yl)prop-2-en-1-one]
≤ 50 | C=CC(=O)N1CCOc2c1ccc1ncnc(Nc3ccc(Oc4nccs4)cc3)c21 [Example 15, 1-(10-((4-(thiazol-2-yloxy)phenyl)amino)-2,3-dihydro-4H-[1,4]oxazino[2,3-f]quinazolin-4-yl)prop-2-en-1-one]
≤ 50 | C=CC(=O)N1CCOc2c1ccc1ncnc(Nc3ccc(Oc4ccccc4)c(F)c3)c21 [Example 16, 1-(10-((3-fluoro-4-phenoxyphenyl)amino)-2,3-dihydro-4H-[1,4]oxazino[2,3-f]quinazolin-4-yl)prop-2-en-1-one]
≤ 50 | C=CC(=O)N1CCOc2c1ccc1ncnc(Nc3ccc(Oc4ccccc4)c(Cl)c3)c21 [Example 17, 1-(10-((3-chloro-4-phenoxyphenyl)amino)-2,3-dihydro-4H-[1,4]oxazino[2,3-f]quinazolin-4-yl)prop-2-en-1-one]
≤ 50 | C=CC(=O)N1CCOc2c1ccc1ncnc(Nc3ccc(OCc4ccc(F)cc4)cc3)c21 [Example 18, 1-(10-((4-((4-fluorobenzyl)oxy)phenyl)amino)-2,3-dihydro-4H-[1,4]oxazino[2,3-f]quinazolin-4-yl)prop-2-en-1-one]
≤ 50 | C=CC(=O)N1CCOc2c1ccc1ncnc(Nc3ccc(OCc4cccc(F)c4)cc3)c21 [Example 19, 1-(10-((4-((3-fluorobenzyl)oxy)phenyl)amino)-2,3-dihydro-4H-[1,4]oxazino[2,3-f]quinazolin-4-yl)prop-2-en-1-one]
≤ 50 | C=CC(=O)N1CCOc2c1ccc1ncnc(Nc3ccc(OCc4cccc(C(F)(F)F)c4)cc3)c21 [Example 20, 1-(10-((4-((3-trifluoromethylbenzyl)oxy)phenyl)amino)-2,3-dihydro-4H-[1,4]oxazino[2,3-f]quinazolin-4-yl)prop-2-en-1-one]
≤ 50 | C=CC(=O)N1CCOc2c1ccc1ncnc(Nc3ccc(OCc4ccccn4)cc3)c21 [Example 21, 1-(10-((4-(pyridin-2-ylmethoxy)phenyl)amino)-2,3-dihydro-4H-[1,4]oxazino[2,3-f]quinazolin-4-yl)prop-2-en-1-one]
≤ 50 | C=CC(=O)N1CCOc2c1ccc1ncnc(Nc3ccc(OCc4cccs4)cc3)c21 [Example 22, 1-(10-((4-(thiophen-2-ylmethoxy)phenyl)amino)-2,3-dihydro-4H-[1,4]oxazino[2,3-f]quinazolin-4-yl)prop-2-en-1-one]
≤ 50 | C=CC(=O)N1CCOc2c1ccc1ncnc(Nc3ccc(OCc4nccs4)cc3)c21 [Example 23, 1-(10-((4-(thiazol-2-ylmethoxy)phenyl)amino)-2,3-dihydro-4H-[1,4]oxazino[2,3-f]quinazolin-4-yl)prop-2-en-1-one]
≤ 50 | C=CC(=O)N1CCOc2c1ccc1ncnc(Nc3ccc(SCc4ccccc4)cc3)c21 [Example 24, 1-(10-((4-(benzylthio)phenyl)amino)-2,3-dihydro-4H-[1,4]oxazino[2,3-f]quinazolin-4-yl)prop-2-en-1-one]
≤ 50 | C=CC(=O)N1CCOc2c1ccc1ncnc(Nc3ccc(OCc4cccc(F)c4)c(C(F)(F)F)c3)c21 [Example 25, 1-(10-((4-((3-fluorobenzyl)oxy)-3-(trifluoromethyl)phenyl)amino)-2,3-dihydro-4H-[1,4]oxazino[2,3-f]quinazolin-4-yl)prop-2-en-1-one]
≤ 50 | C=CC(=O)N1CCOc2c1ccc1ncnc(Nc3ccc(OCc4cccc(F)c4)c(OC)c3)c21 [Example 26, 1-(10-((4-((3-fluorobenzyl)oxy)-3-(methoxy)phenyl)amino)-2,3-dihydro-4H-[1,4]oxazino[2,3-f]quinazolin-4-yl)prop-2-en-1-one]
≤ 50 | C=CC(=O)N1CCOc2c1ccc1ncnc(Nc3ccc(OCc4cccc(F)c4)c(F)c3)c21 [Example 27, 1-(10-((4-((3-fluorobenzyl)oxy)-3-fluorophenyl)amino)-2,3-dihydro-4H-[1,4]oxazino[2,3-f]quinazolin-4-yl)prop-2-en-1-one]
≤ 50 | C=CC(=O)N1CCOc2c1ccc1ncnc(Nc3ccc(Sc4ccc(F)cc4)cc3)c21 [Example 28, 1-(10-((4-((4-fluorophenyl)thio)phenyl)amino)-2,3-dihydro-4H-[1,4]oxazino[2,3-f]quinazolin-4-yl)prop-2-en-1-one]
≤ 50 | C=CC(=O)N1CCOc2c1ccc1ncnc(Nc3ccc(Oc4ccccc4)cc3F)c21 [Example 29, 1-(10-((2-fluoro-4-phenoxyphenyl)amino)-2,3-dihydro-4H-[1,4]oxazino[2,3-f]quinazolin-4-yl)prop-2-en-1-one]
≤ 50 | C=CC(=O)N1CCOc2c1ccc1ncnc(Nc3ccc(Oc4ccccc4OCCN(C)C)cc3)c21 [Example 30, 1-(10-((4-(2-(2-(dimethylamino)ethoxy)phenoxy)phenyl)amino)-2,3-dihydro-4H-[1,4]oxazino[2,3-f]quinazolin-4-yl)prop-2-en-1-one]
50 to 500 | C=CC(=O)N1CCOc2c1ccc1ncnc(Nc3ccc(Oc4ccccc4OCCCN(C)C)cc3)c21 [Example 31, 1-(10-((4-(2-(3-(dimethylamino)propoxy)phenoxy)phenyl)amino)-2,3-dihydro-4H-[1,4]oxazino[2,3-f]quinazolin-4-yl)prop-2-en-1-one]
≤ 50 | C=CC(=O)N1CCOc2c1ccc1ncnc(Nc3ccc(Oc4ccccc4OCCOC)cc3)c21 [Example 32, 1-(10-((4-(2-(2-methoxyethoxy)phenoxy)phenyl)amino)-2,3-dihydro-4H-[1,4]oxazino[2,3-f]quinazolin-4-yl)prop-2-en-1-one]
